Each molecule was assayed against Endothelial lipase (EL) (Homo sapiens (Human), UniProt Q9Y5X9) (assay: EL assay: endothelial lipase activity with fluorescent substrate A10070 in DMPG vesicles). Settings: EL from conditioned media of HT-1080 cells; 30 min incubation with compound at 37° C.; A10070/DMPG vesicles.
Format: biochemical
Procedure: Endothelial lipase (EL) and hepatic lipase (HL) activities were measured using a fluorescent substrate, A10070, (Invitrogen, CA) doped into an artificial vesicle containing DMPG (Avanti Polar Lipids) as the excipient. Vesicles were prepared by combining 571 μL of 29 mM DMPG in a 1:1 mixture of MeOH and CHCl3 with 2000 μL of 1 mM A10070 in a 1:1 mixture of MeOH and CHCl3. The mixture was dried under nitrogen in multiple vials then resuspended in 20 mL total volume of 50 mM HEPES pH 8.0 buffer containing 50 mM NaCl and 0.2 mM EDTA. The sample was allowed to sit at room temperature for 15 min and then was sonicated 3×4 mins on ice with a Branson Sonicator using duty cycle 1. This preparation provides vesicles with a mole fraction of 0.11 for the FRET substrate.
The enzymatic assay was measured using 384-well white Optiplates. Each well contained 20 μL of assay buffer (50 mM HEPES pH 8.0, 50 mM NaCl and 1 mM CaCl2) and 0.25 μL of a DMSO solution containing a compound of interest. EL or HL (10 μL) was added and allowed to incubate with the compound for 30 min at 37° C. The source of EL was conditioned media obtained from HT-1080 cells that were transformed using RAGE technology (Athersys) to overexpress endogenous EL, and HL was partially purified from conditioned media obtained from COS cells overexpressing HL. The reaction was started by the addition of 10 μL of a 1:10 dilution of vesicles. The final total reaction volume was […]. The reaction rates were measured on a Gemini plate reader with an excitation wavelength of 490 nm and an emission wavelength of 530 nm. Readings were taken over a period of 60 minutes, and the slope between 300 and 900 secs of the readout was used to calculate the rate of the reaction.

Sequence of Endothelial lipase (EL) (Q9Y5X9 21-500): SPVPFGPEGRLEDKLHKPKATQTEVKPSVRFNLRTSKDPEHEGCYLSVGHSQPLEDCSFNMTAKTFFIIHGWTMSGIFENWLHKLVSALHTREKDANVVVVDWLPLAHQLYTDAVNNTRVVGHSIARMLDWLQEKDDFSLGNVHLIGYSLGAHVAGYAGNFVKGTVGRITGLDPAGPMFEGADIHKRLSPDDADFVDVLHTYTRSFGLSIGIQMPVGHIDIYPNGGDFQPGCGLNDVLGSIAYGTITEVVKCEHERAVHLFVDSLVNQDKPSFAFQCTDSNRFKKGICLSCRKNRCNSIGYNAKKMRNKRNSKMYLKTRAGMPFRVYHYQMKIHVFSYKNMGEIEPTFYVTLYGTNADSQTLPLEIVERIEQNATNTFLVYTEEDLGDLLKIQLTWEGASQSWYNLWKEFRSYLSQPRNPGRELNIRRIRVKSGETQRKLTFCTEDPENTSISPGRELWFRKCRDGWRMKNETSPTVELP

SMILES | IC50 [nM]
NS(=O)(=O)CCNC(=O)C(NC(=O)c1ccc(C(F)(F)F)cc1)c1nc2ccc(-c3ccc(F)nc3)cc2s1 (stereo not drawn) [Example A1, N-(1-(6-(6-Fluoropyridin-3-yl)benzo[d]thiazol-2-yl)-2-oxo-2-((2-sulfamoylethyl)amino)ethyl)-4-(trifluoromethyl)benzamide] | 35
Cc1nnc(CNC(=O)C(NC(=O)NCc2ccccc2)c2nc3ccc(-c4ccc(F)cc4)cc3s2)o1 (stereo not drawn) [Example A9, 2-(3-Benzylureido)-2-(6-(4-fluorophenyl)benzo[d]thiazol-2-yl)-N-((5-methyl-1,3,4-oxadiazol-2-yl)methyl)acetamide] | 50
Cc1noc(C)c1-c1ccc2nc(C(C(=O)NCCS(N)(=O)=O)S(C)(=O)=O)sc2c1 (stereo not drawn) [Example B4, 2-(6-(3,5-dimethyl-4-isoxazolyl)-1,3-benzothiazol-2-yl)-2-(methylsulfonyl)-N-(2-sulfamoylethyl)acetamide] | 13
CS(=O)(=O)C(C(=O)NCCS(N)(=O)=O)c1nc2ccc(-c3ccc(CN4CCOCC4)cc3)cc2s1 (stereo not drawn) [Example B13, 2-(methylsulfonyl)-2-(6-(4-(4-morpholinylmethyl)phenyl)-1,3-benzothiazol-2-yl)-N-(2-sulfamoylethyl)acetamide] | < 10
C=CCS(=O)(=O)C(C(=O)NCCS(N)(=O)=O)c1nc2ccc(-c3ccc(CN4CCOCC4)cc3)cc2s1 (stereo not drawn) [Example B14, 2-(allylsulfonyl)-2-(6-(4-(4-morpholinylmethyl)phenyl)-1,3-benzothiazol-2-yl)-N-(2-sulfamoylethyl)acetamide] | < 10
CCCS(=O)(=O)C(C(=O)NCCS(N)(=O)=O)c1nc2ccc(-c3ccnc(F)c3)cc2s1 (stereo not drawn) [Example B15, 2-(6-(2-fluoro-4-pyridinyl)-1,3-benzothiazol-2-yl)-2-(propylsulfonyl)-N-(2-sulfamoylethyl)acetamide] | < 10
CC(=O)Nc1ccc(-c2ccc3nc(C(C(=O)NCCS(N)(=O)=O)S(C)(=O)=O)sc3c2)cc1 (stereo not drawn) [Example B16, 2-(6-(4-acetamidophenyl)-1,3-benzothiazol-2-yl)-2-(methylsulfonyl)-N-(2-sulfamoylethyl)acetamide] | 40
CN(C)S(=O)(=O)c1ccc(-c2ccc3nc(C(C(=O)NCCS(N)(=O)=O)S(C)(=O)=O)sc3c2)cc1 (stereo not drawn) [Example B17, 2-(6-(4-(dimethylsulfamoyl)phenyl)-1,3-benzothiazol-2-yl)-2-(methylsulfonyl)-N-(2-sulfamoylethyl)acetamide] | < 10
CNc1ccc(-c2ccc3nc(C(C(=O)NCCS(N)(=O)=O)S(C)(=O)=O)sc3c2)cc1 (stereo not drawn) [Example B18, 2-(6-(4-(methylamino)phenyl)-1,3-benzothiazol-2-yl)-2-(methylsulfonyl)-N-(2-sulfamoylethyl)acetamide] | 13
COc1ccc(-c2ccc3nc(C(C(=O)NCCS(N)(=O)=O)S(C)(=O)=O)sc3c2)cn1 (stereo not drawn) [Example B19, 2-(6-(6-methoxy-3-pyridinyl)-1,3-benzothiazol-2-yl)-2-(methylsulfonyl)-N-(2-sulfamoylethyl)acetamide] | < 10
CS(=O)(=O)C(C(=O)NCCS(N)(=O)=O)c1nc2ccc(-c3ccc(N4CCOCC4)cc3)cc2s1 (stereo not drawn) [Example B20, 2-(methylsulfonyl)-2-(6-(4-(4-morpholinyl)phenyl)-1,3-benzothiazol-2-yl)-N-(2-sulfamoylethyl)acetamide] | < 10
CS(=O)(=O)C(C(=O)NCCS(N)(=O)=O)c1nc2ccc(-c3ccc(-n4cccn4)cc3)cc2s1 (stereo not drawn) [Example B21, 2-(methylsulfonyl)-2-(6-(4-(1H-pyrazol-1-yl)phenyl)-1,3-benzothiazol-2-yl)-N-(2-sulfamoylethyl)acetamide] | < 10
COC(=O)Nc1ccc(-c2ccc3nc(C(C(=O)NCCS(N)(=O)=O)S(C)(=O)=O)sc3c2)cc1 (stereo not drawn) [Example B22, methyl (4-(2-(1-(methylsulfonyl)-2-oxo-2-((2-sulfamoylethyl)amino)ethyl)-1,3-benzothiazol-6-yl)phenyl)carbamate] | < 10
CS(=O)(=O)CCNC(=O)C(c1nc2ccc(-c3ccnc(F)c3)cc2s1)S(C)(=O)=O (stereo not drawn) [Example B23, 2-(6-(2-Fluoro-4-pyridinyl)-1,3-benzothiazol-2-yl)-2-(methylsulfonyl)-N-(2-(methylsulfonyl)ethyl)acetamide] | 210

More lines, now with the values ahead:

IC50 [nM] | SMILES
< 10 | CCCC(=O)NC(C(=O)NCCS(N)(=O)=O)c1nc2ccc(-c3ccc(F)nc3)cc2s1 (stereo not drawn) [Example A3, N-(1-(6-(6-fluoropyridin-3-yl)benzo[d]thiazol-2-yl)-2-oxo-2-((2-sulfamoylethyl)amino)ethyl)butyramide]
< 10 | NS(=O)(=O)CCNC(=O)C(NC(=O)C(F)F)c1nc2ccc(-c3ccc(F)nc3)cc2s1 (stereo not drawn) [Example A4, 2-(2,2-difluoroacetamido)-2-(6-(6-fluoropyridin-3-yl)benzo[d]thiazol-2-yl)-N-(2-sulfamoylethyl)acetamide]
< 10 | CCCC(=O)NC(C(=O)NCCS(N)(=O)=O)c1nc2ccc(-c3ccc(C(=O)N4CCOCC4)cc3)cc2s1 (stereo not drawn) [Example A5, N-(1-(6-(4-(morpholine-4-carbonyl)phenyl)benzo[d]thiazol-2-yl)-2-oxo-2-((2-sulfamoylethyl)amino)ethyl)butyramide]
< 10 | NS(=O)(=O)CCNC(=O)C(NC(=O)c1cccnc1)c1nc2ccc(-c3ccc(C(=O)N4CCOCC4)cc3)cc2s1 (stereo not drawn) [Example A6, N-(1-(6-(4-(morpholine-4-carbonyl)phenyl)benzo[d]thiazol-2-yl)-2-oxo-2-((2-sulfamoylethyl)amino)ethyl)nicotinamide]
< 10 | NS(=O)(=O)CCNC(=O)C(NC(=O)c1ccc(C(F)(F)F)cc1)c1nc2ccc(-c3ccc(C(=O)N4CCOCC4)cc3)cc2s1 (stereo not drawn) [Example A7]
< 10 | CC(=O)NC(C(=O)NCc1nnc(C)o1)c1nc2ccc(-c3ccc(F)cc3)cc2s1 (stereo not drawn) [Example A8, 2-acetamido-2-(6-(4-fluorophenyl)benzo[d]thiazol-2-yl)-N-((5-methyl-1,3,4-oxadiazol-2-yl)methyl)acetamide]
< 10 | CS(=O)(=O)C(C(=O)NCCS(N)(=O)=O)c1nc2ccc(-c3ccccc3)cc2s1 (stereo not drawn) [Example B1, 2-(Methylsulfonyl)-2-(6-phenylbenzo[d]thiazol-2-yl)-N-(2-sulfamoylethyl)acetamide]
< 10 | C=CCS(=O)(=O)C(C(=O)NCCS(N)(=O)=O)c1nc2ccc(-c3ccccc3)cc2s1 (stereo not drawn) [Example B2, 2-(Allylsulfonyl)-2-(6-phenylbenzo[d]thiazol-2-yl)-N-(2-sulfamoylethyl)acetamide]
< 10 | CS(=O)(=O)C(C(=O)NCCS(N)(=O)=O)c1nc2ccc(-c3ccc(F)nc3)cc2s1 (stereo not drawn) [Example B3, 2-(6-(6-fluoro-3-pyridinyl)-1,3-benzothiazol-2-yl)-2-(methylsulfonyl)-N-(2-sulfamoylethyl)acetamide]
< 10 | NS(=O)(=O)CCNC(=O)C(c1nc2ccc(-c3ccc(F)nc3)cc2s1)S(=O)(=O)Cc1ccccc1 (stereo not drawn) [Example B5, 2-(benzylsulfonyl)-2-(6-(6-fluoro-3-pyridinyl)-1,3-benzothiazol-2-yl)-N-(2-sulfamoylethyl)acetamide]
< 10 | NS(=O)(=O)CCNC(=O)C(c1nc2ccc(-c3ccc(F)nc3)cc2s1)S(=O)(=O)Cc1ccc(C(F)(F)F)cc1 (stereo not drawn) [Example B6, 2-(6-(6-fluoro-3-pyridinyl)-1,3-benzothiazol-2-yl)-N-(2-sulfamoylethyl)-2-((4-(trifluoromethyl)benzyl)sulfonyl)acetamide]
< 10 | NS(=O)(=O)CCNC(=O)C(c1nc2ccc(-c3ccc(F)nc3)cc2s1)S(=O)(=O)CCC(F)(F)F (stereo not drawn) [Example B7, 2-(6-(6-fluoropyridin-3-yl)benzo[d]thiazol-2-yl)-N-(2-sulfamoylethyl)-2-((3,3,3-trifluoropropyl)sulfonyl)acetamide]
< 10 | CS(=O)(=O)C(C(=O)NCCS(N)(=O)=O)c1nc2ccc(-c3ccnc(F)c3)cc2s1 (stereo not drawn) [Example B8, 2-(6-(2-fluoro-4-pyridinyl)-1,3-benzothiazol-2-yl)-2-(methylsulfonyl)-N-(2-sulfamoylethyl)acetamide]
< 10 | CS(=O)(=O)C(C(=O)NCCS(N)(=O)=O)c1nc2ccc(-c3ccnc(Cl)c3)cc2s1 (stereo not drawn) [Example B9, 2-(6-(2-chloro-4-pyridinyl)-1,3-benzothiazol-2-yl)-2-(methylsulfonyl)-N-(2-sulfamoylethyl)acetamide]
< 10 | CS(=O)(=O)C(C(=O)NCCS(N)(=O)=O)c1nc2ccc(-c3ccc(Cl)nc3)cc2s1 (stereo not drawn) [Example B10, 2-(6-(6-chloro-3-pyridinyl)-1,3-benzothiazol-2-yl)-2-(methylsulfonyl)-N-(2-sulfamoylethyl)acetamide]
< 10 | CC(C)S(=O)(=O)C(C(=O)NCCS(N)(=O)=O)c1nc2ccc(-c3ccc(F)nc3)cc2s1 (stereo not drawn) [Example B12, 2-(6-(6-fluoro-3-pyridinyl)-1,3-benzothiazol-2-yl)-2-(isopropylsulfonyl)-N-(2-sulfamoylethyl)acetamide]

— patent publication US8987314B2, “Amide, urea or sulfone amide linked benzothiazole inhibitors of endothelial lipase” (Bristol-Myers Squibb Company, priority 2012, dated 2015)
